The text below walks through data of patent US8217071B2, “Use of inhibitors of the degradation of p27, in particular Argyrin and derivatives thereof, for the treatment of proliferative diseases” (Helmholtz Zentrum für Infektionsforschung GmbH, priority 2007, dated 2012).

Numbered stars: 1 amine (or outer) side, 2 acyl side, 3 side chain; on linkers, the order of the positions; unused ones are H or OH. Square brackets hold non-standard residues; d marks the D form. Peptide text beside a SMILES is read from it. dAla(ψthiazole) = C[C@@H](N[*:1])c1nc(C(=O)[*:2])cs1; Trp(4-OMe) = COc1cccc2[nH]cc(C[C@H](N)C(=O)O)c12; Dha = C=C(N)C(=O)O; Sar = CNCC(=O)O

The test system of test [1] is mouse embryonic fibroblasts from p27^kip1 knockout mice. Briefly: Apoptosis (sub-G1 fraction) by flow cytometry in p27 knockout MEF. The format is cell-based. To be noted: for apoptosis in p27 knockout MEF: sub G1 fraction. The source says:
(§1) Next the inventors tested whether the stabilization of p27 was indeed required for the apoptosis inducing function of Argyrin A or was merely a consequence of proteasome inhibition. For this the inventors treated immortalized mouse embryonic fibroblasts from p27^kip1 wildtype or knockout mice with Argyrin A or the proteasome inhibitor bortezomib and assayed cell cycle distribution and apoptosis by flow cytometry. […] These differences in sensitivity in response to Argyrin A treatment were not due to differences in the accumulation of other proteasomal substrates in p27 wildtype and knockout cells as p53 and p21 levels increased in both cell lines in response to Argyrin A (FIG. 6B). To extend this observation to human cancer cells the inventors reduced the levels of p27^kip1 in HeLa cells using p27^kip1 specific siRNA.
(§2) The results shown are the average numbers for six independent experiments. b+d) Wildtype (b) and p27 knockout (d) MEF were treated with Argyrin A or transfected with siRNAs specific for the β1, β2 or β5 subunit of the proteasome for 24 hours. The graphs show the remaining catalytic activity of the different proteasome subunits after Argyrin A or siRNA treatment compared to an untreated control (n=3). The western blots show the expression of the β1, β2 or β5 subunit of the proteasome in proliferating cells and after treatment with siRNAs for a representative experiment. c+e) Flow cytometric measurements of the number of apoptotic cells (sub-G1 fraction) after Argyrin A or siRNA treatment in wildtype (c) or p27 knockout (E) MEF. f) HeLa cells were treated with Argyrin A or siRNA against p27 or Argyrin A and siRNA against p27 for either 24 or 48 hours.
(§3) MTT assays were done as previously described (Sasse, F. et al. Argyrins, immunosuppressive cyclic peptides from myxobacteria. I. Production, isolation, physico-chemical and biological properties. J Antibiot (Tokyo) 55, 543-51 (2002)). TUNEL staining of tissue sections was performed on 10 micrometer sections which were deparafinised and treated as recommended by the manufacturer. (In Situ Cell Death Detection Kit, Fluorescein; ROCHE, Cat #11 684 795 910). Flow cytometric analysis of cultured cells was done using a Becton Dickinson fluorescence cytometer as previously described (Malek, N. P. et al. A mouse knock-in model exposes sequential proteolytic pathways that regulate p27^Kip1 in G1 and S phase. Nature 413, 323-7 (2001)). Analysis of the distribution of cells in the cell cycle and the sub-G1 fraction was done using Cell Quest software. A histone-associated-DNA-fragments ELISA was used to determine the number of apoptotic cells according to manufacturers instructions (Roche #11 774425001).

Test [2] relates to mouse embryonic fibroblasts from p27^kip1 wildtype mice. Briefly: Apoptosis (sub-G1 fraction) by flow cytometry in p27 wildtype MEF. In kind it is cell-based. Particulars: for apoptosis in p27 wildtype MEF: sub G1 fraction.
Description: as §1, §2, §3

The subject of test [3] is SW480 colon carcinoma xenotransplant tumours. Description: SW480 xenotransplant tumours in nu/nu mice. The format is in vivo, mouse. To be noted: for proteasome activity in the primary tumour tissue: single dose. As to the method: At the indicated timepoints 20S proteasome was isolated from peripheral blood cells and the activity of the different proteasome subunits was determined as described (FIG. 1d). b) SW480 colon carcinoma cell lines mixed with matrigel were injected under the skin of nu/nu mice to establish xenotransplant tumours. Treatment with Argyrin A or bortezomib was started when these tumours reached a volume of 200 mm^3. […] The activity of the respective proteasome subunits was determined as described previously (FIG. 1d). e) Determination of the number of p27^kip1 positive cells in tumour tissue after Argyrin A treatment. The pictures show representative samples of immunohistochemical stainings for p27 in tumour tissues after 10 days of Argyrin A treatment. f) Detection of apoptotic cells in xenotransplanted tumours by TUNEL staining of tumour tissues after treatment with Argyrin A or bortezomib. At least 200 cells were counted on five independent sections to quantitate the number of apoptotic cells.
as §3
Proteasome assays using proteasome purified from cells or tissues were carried out in a 100 μL reaction volume containing 20 μg proteasome extract, 50 mmol/L EDTA and 60 μmol/L fluorogenic substrate (chymotrypsin-like (CT-L), trypsin-like (T-L) or caspase-like (C-L)) in ATP/DTT lysis buffer at 37° C. The assay buffer was supplemented with a final concentration of 0.05% SDS for the evaluation of the chymotrypsin-like activity and caspase-like activity. The rate of cleavage of fluorogenic peptide substrates was determined by monitoring the fluorescence of released amonomethylcoumarin using a Victor 1420 Multilabel counter (Wallac) at an excitation wavelength of 395 nm and emission wavelength of 460 nm over a period of 60 min.
1×10^7 SW480 cells or HCT116 cells (in 100 microliters DMEM medium and 100 microliters matrigel) were s.c. injected into the flanks of NMRI nu/nu mice. Tumours grew for approx. 18 days until they reached appropriate size (200 mm3). Tumour size was measured with a digital calliper and calculated with the help of the following formula: (Length×width2)*π/6. All experiments were done after review and in accordance with the animal rights and protection agencies of Lower Saxony, Germany.

The test system of another test is MCF7 cells. Briefly: Gene expression signature (DNA microarray) of MCF7 cells. The format is cell-based, human. As to the method:
The inventors decided to compare the cellular responses of cells treated with Argyrin A or bortezomib directly. To this end the inventors determined the gene expression signature of MCF7 cells in response to Argyrin A or bortezomib and compared the resulting gene expression profiles. […] As shown in FIG. 2G the gene expression profiles of MCF7 cells which were treated with either bortezomib or Argyrin A differ dramatically. While bortezomib treatment led to changes in the expression of more than 10900 genes, only about 500 genes changed in response to Argyrin A treatment. Among these genes, 311 were affected by both bortezomib and Argyrin A, respectively.
Quality and integrity of the total RNA isolated was controlled by running all samples on an Agilent Technologies 2100 Bioanalyzer (Agilent Technologies; Waldbronn, Germany). For biotin-labelled target synthesis starting from 3 μg of total RNA, reactions were performed using standard protocols supplied by the manufacturer (Affymetrix; Santa Clara, Calif.). In each case 10 μg of labelled cRNA were hybridized to an identical lot of Affymetrix GeneChips HG-U133 2.0 for 16 hours at 45° C. After hybridisation the GeneChips were washed, stained with SA-PE and read using an Affymetrix GeneChip fluidic station and scanner.
Analysis of microarray data was performed using the Affymetrix GCOS 1.2 software. […]

Turning to `C=C1NC(=O)[C@@H](C)NC(=O)CNC(=O)[C@H](Cc2c[nH]c3cccc(OC)c23)NC(=O)[C@H](Cc2c[nH]c3ccccc23)NC(=O)c2csc(n2)[C@@H](C)NC(=O)CN(C)C1=O` [Argyrin A] (cyclo(W[Trp(4-OMe)]G[dA][Dha][Sar][dAla(ψthiazole)])), the “p27^kip1 knockout fibroblasts undergoing apoptotic cell death” value in test [1] (after 60 hours of treatment) is “ten”. Further, the “apoptosis, share of all fibroblasts derived from p27 knockout mice” value in test [1] (comparable levels of proteasome inhibition, 24 hours) was 5%. For the same compound, the “apoptosis, share of all cells, wildtype fibroblasts” value in test [2] (after 24 hours) is reported as 38%. In addition, the “apoptosis in p27 wildtype MEF” value in test [2] was “induced apoptosis”. Also, the “size of the xenotransplanted tumours” value in test [3] (SW480, 0.15 mg/kg i.p. every three days) is recorded as “significant reduction”. Also, the “apoptotic cell death, share of all tumor cells” value in test [3] (SW480 xenograft, TUNEL staining) is given as greater than 60%. The “p27^kip1 in tumour tissue” value in test [3] (SW480 xenograft, immunohistochemistry) is given as “induction”. In test [3], the “proteasome activity in the primary tumour tissue” value is “significant reduction”. The “number of genes with changed expression” value in the test with MCF7 cells is recorded as “about 500 genes”.

As for `CC(C)C[C@H](NC(=O)[C@H](Cc1ccccc1)NC(=O)c1cnccn1)B(O)O` [bortezomib, reference compound], the results for the “apoptosis in p27 knockout MEF” value in test [1] and in test [1] (listed as Bortezomib) were “massive apoptosis” and “induced apoptosis”, respectively. Besides, the figures for the “apoptosis in p27 wildtype MEF” value in test [2] and in test [2] (listed as Bortezomib) were “massive apoptosis” and “induced apoptosis”, respectively. In test [3], the “proteasome activity in the primary tumour tissue” value is reported as “significant reduction”. Further, in the test with MCF7 cells, the “number of genes with changed expression” value was “more than 10900 genes”.
